In one experiment the target is D2 receptor (Homo sapiens, UniProt P14416). Briefly: D2 receptor binding in an assay similar to the D4 [3H]Spiperone binding assay. Conditions: assay similar to the described [3H]Spiperone binding assay. The procedure: (§1) The determination of D4 dopaminergic activity has been described by Van Tol et al., Nature, vol. 350, 610 (London, 1991). Clonal cell lines expressing the human dopamine D4 receptor are harvested and homogenized (teflon pestle) in a 50 mM Tris:HCI (pH 7.4 at 4°C) buffer containing 5 mM EDTA, 1.5 mM calcium chloride (CaCl2), 5 mM magnesium chloride (MgCL2), 5mM potassium chloride (KCI) and 120 mM sodium chloride (NaCI). The homogenates are centrifugated for 15 min. at 39,000 g, and the resulting pellets resuspended in a buffer at a concentration of 150-250 µg/ml. For saturation experiments, 0.25 ml aliquots of tissue homogenate are incubated in duplicate with increasing concentrations of [^3H] Spiperone (70.3 Ci/mmol; 10-3000 pM final concentration) for 30-120 minutes at 22°C in a total volume of 1 ml. […] Assays are terminated by rapid filtration through a Titertek cell harvester and the filters subsequently monitored for tritium as described by Sunahara, R.K. et al., Nature, 346, 76-80 (1990). […] Both saturation and competition binding data are analyzed by the non-linear least square curve-fitting program Ligand run on a digital Micro-PP-11 as described by Sunahara et al.
D2 receptor, sequence (P14416 whole entry): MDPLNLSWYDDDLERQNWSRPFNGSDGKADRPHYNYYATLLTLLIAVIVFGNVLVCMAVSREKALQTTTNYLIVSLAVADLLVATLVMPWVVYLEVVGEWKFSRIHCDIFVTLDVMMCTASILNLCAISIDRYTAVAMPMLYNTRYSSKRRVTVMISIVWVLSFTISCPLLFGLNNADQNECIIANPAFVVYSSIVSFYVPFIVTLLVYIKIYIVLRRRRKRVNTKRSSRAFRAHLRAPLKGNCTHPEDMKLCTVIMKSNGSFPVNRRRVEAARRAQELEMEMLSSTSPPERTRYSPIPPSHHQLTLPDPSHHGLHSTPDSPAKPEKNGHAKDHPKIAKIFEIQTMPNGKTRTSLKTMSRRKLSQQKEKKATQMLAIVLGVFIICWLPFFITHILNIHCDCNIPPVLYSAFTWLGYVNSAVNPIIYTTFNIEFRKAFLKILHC

Experiment [1] has as its target T1, human dopamine D4 receptor (Homo sapiens, UniProt P21917).
T1 construct: expressed in transfected cells
T1 sequence (P21917 1-419): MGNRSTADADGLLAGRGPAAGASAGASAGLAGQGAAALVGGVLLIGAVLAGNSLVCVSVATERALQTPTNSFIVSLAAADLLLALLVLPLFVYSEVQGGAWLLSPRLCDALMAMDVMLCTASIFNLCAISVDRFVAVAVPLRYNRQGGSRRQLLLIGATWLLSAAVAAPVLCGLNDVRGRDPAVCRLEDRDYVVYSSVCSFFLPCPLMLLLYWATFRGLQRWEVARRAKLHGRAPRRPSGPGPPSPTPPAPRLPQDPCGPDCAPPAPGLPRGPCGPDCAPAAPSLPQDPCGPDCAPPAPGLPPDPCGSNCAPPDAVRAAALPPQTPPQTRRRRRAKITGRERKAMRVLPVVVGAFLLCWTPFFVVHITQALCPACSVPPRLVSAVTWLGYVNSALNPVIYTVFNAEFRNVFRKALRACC
Briefly: D4 dopaminergic activity: [3H]Spiperone competition binding (assay similar to the one described). Conditions: assay similar to the [3H]Spiperone binding assay on clonal cell lines expressing the human dopamine D4 receptor. The procedure: The D4 dopaminergic activity of the compounds of the present invention may be determined by the following procedure.
as §1

Broadly, the IC50 is the concentration at which inhibition is half-maximal. Low readings indicate greater potency in that assay, high ones weaker potency in that assay. `O=c1[nH]c2ccccc2n1CCCN1CCN(c2ccc(Cl)cn2)CC1` [Example 1, 1-{3-[4-(5-Chloro-pyridin-2-yl)-piperazin-1-yl]-propyl}-1,3-dihydrobenzoimidazol-2-one]: the IC50 was 1000 to 3300 nM on D2 receptor and ≤ 110 nM in experiment [1].

Turning to `O=c1[nH]c2ccccc2n1CCCN1CCN(c2ccc(C(F)(F)F)cn2)CC1` [Example 4, 1-{3-[4-(5-Trifluoromethyl-pyridin-2-yl)-piperazine-1-yl]-propyl}-1,3-dihydrobenzoimidazol-2-one], the IC50 on D2 receptor was 1000 to 3300 nM; in experiment [1] it was ≤ 110 nM.
